The values that follow are results of earlier work, collected in patent US20260167972A1, “AMINO ACID DERIVATIVES AS NOVEL DELIVERY AGENTS FOR FUNCTIONAL DELIVERY OF OLIGONUCLEOTIDES” (University of Rochester, priority 2022, published 2026).

The series has as its system human A549 lung adenocarincoma cells. Particulars: cyclic peptide complexed with Rh-siRNA; compared with naked Rh-siRNA; cited from earlier work.

“Also recorded” adds a separate entry of the source.

For Ac-C(FKFE)2CG-NH2, the Rh-siRNA cellular/cytosolic delivery result was “improved Rh-siRNA cellular delivery compared with naked Rh-siRNA”.
Turning to Ac-C(WR)4CG-NH2, the Rh-siRNA cellular/cytosolic delivery entry was “improved Rh-siRNA cellular delivery compared with naked Rh-siRNA; also recorded: significantly enhanced cytosolic delivery of Rh-siRNA”.
